Test results published in patent US20040152191A1 (priority 2001, published 2004).

How the values were obtained:
Type in all cases: cell-based
[1] = tested on: human hematopoietic CD34+ stem cells; assay: Production of dendritic cells from human hematopoietic CD34+ stem cells, cell markers (Example 2); settings: TNF-α 2.5 ng/ml or RU 41740 6.25 ng/ml from D0 to D5
Method: Purification: After Ficoll, the CD34+ represented 4.2% of the mononucleated cells (MNC).
After purification by positive selection with the MAC System procedure (Miltenyi Biotec) with beads coated with an anti-CD34 antibody, 90% of the cells are CD34+.
Culture Medium: RPMI containing 10% of FCS, 2% of penicillin/streptomycin, 1% of glutamine and 1% of sodium bicarbonate.
Culture in 2 ml wells with 5×10^5 cells per well. from D0 to D5: […] at 25 ng/ml, GM-CSF at 100 ng/ml and either TNF-α at 2.5 ng/ml […]
from D5 to D14: GM-CSF at 100 ng/ml
Duplication of the Cultures: -the cells are homogenized in the well, then 1 ml sample is taken and deposited in a fresh well. 1 ml of culture medium is then added to the fresh well and the old one, as well as GM-CSF as a function of the medium added.
A fluorescence-labelled anti-KLH primary antibody was used as control in order to be able to subtract the non-specific fluorescence of the signals obtained.

[2] = tested on: CD34+ cells of human cord blood; assay: Production of dendritic cells from CD34+ cells of human cord blood, cell markers (Example 3); settings: TNF-α 200 IU/ml or RU 41740 10 μg/ml until D6
Source text: The experimental conditions are similar to Example 2, except the fact that the cells are derived from cord blood:
Purification: After Ficoll, the CD34+ cells represent 0.83% of the mononucleated cells (MNC).
After purification by positive selection, 18.1% of CD34+ are obtained.
Duplication: on D6, D7,D8, D10 and D12.

[3] = tested on: Langerhans cells; assay: Differentiation of Langerhans cells from cord blood CD34+ cells (Example 4); settings: D12; GM-CSF with TNF-α 2.5 ng/ml or RU 41740 10 μg/ml for 12 days
Source text: The stem cells are obtained after a passage of cord blood through a Ficoll gradient. The mononucleated CD34+ cells are purified by positive selection with an anti-CD34 monoclonal antibody (Immu 133.3, Immunotech Marseille, France). After purification, more than 90% of the cells are CD34+.
At the end of the culture period at D12, the cells are labelled with the anti-CD1a, CD14, Lag, E-cadherin, DR and DQ antibodies so as to identify the Langerhans cells which are Lag+, CD1a+, CD14−, DR+ and DQ+.

TNF-α
CD1a, percentage of cells expressing the marker ([1]; D8): 8.7% | CD14, percentage of cells expressing the marker ([1]; D8): 40% | CD34, percentage of cells expressing the marker ([1]; D8): 0.7% | CD40, percentage of cells expressing the marker ([1]; D8): 44% | CD45, percentage of cells expressing the marker ([1]; D8): 96% | CD54, percentage of cells expressing the marker ([1]; D8): 33% | CD83, percentage of cells expressing the marker ([1]; D8): 0.5% | CD86, percentage of cells expressing the marker ([1]; D8): 13% | HLA-DR, percentage of cells expressing the marker ([1]; D8): 88% | CD1a, percentage of cells expressing the marker ([1]; D12): 8.4% | CD14, percentage of cells expressing the marker ([1]; D12): 63.2% | CD40, percentage of cells expressing the marker ([1]; D12): 64.3% | CD54, percentage of cells expressing the marker ([1]; D12): 61.8% | CD80, percentage of cells expressing the marker ([1]; D12): 5.3% | CD83, percentage of cells expressing the marker ([1]; D12): 1.3% | CD86, percentage of cells expressing the marker ([1]; D12): 7.4% | HLA-DQ, percentage of cells expressing the marker ([1]; D12): 54.1% | HLA-DR, percentage of cells expressing the marker ([1]; D12): 80.3% | CD1a, percentage of cells expressing the marker ([1]; D14): 10.3% | CD14, percentage of cells expressing the marker ([1]; D14): 54.1% | CD83, percentage of cells expressing the marker ([1]; D14): 0.8% | CD86, percentage of cells expressing the marker ([1]; D14): 2.2% | HLA-DR, percentage of cells expressing the marker ([1]; D14): 69.9% | CD1a, percentage of labelled cells ([2]; D7): 4.41% | CD14, percentage of labelled cells ([2]; D7): 32% | CD16, percentage of labelled cells ([2]; D7): 2.24% | CD34, percentage of labelled cells ([2]; D7): 19.79% | CD45, percentage of labelled cells ([2]; D7): 99.84% | CD83, percentage of labelled cells ([2]; D7): 1.09% | CD86, percentage of labelled cells ([2]; D7): 11.61% | CD1a, percentage of labelled cells ([2]; D9): 23.75% | CD14, percentage of labelled cells ([2]; D9): 59.6% | CD16, percentage of labelled cells ([2]; D9): 2.16% | CD34, percentage of labelled cells ([2]; D9): 2.53% | CD45, percentage of labelled cells ([2]; D9): 99.96% | CD83, percentage of labelled cells ([2]; D9): 4.24% | CD86, percentage of labelled cells ([2]; D9): 22.23% | CD1a, percentage of labelled cells ([2]; D10): 20.63% | CD14, percentage of labelled cells ([2]; D10): 60% | CD16, percentage of labelled cells ([2]; D10): 2.11% | CD34, percentage of labelled cells ([2]; D10): 2.26% | CD45, percentage of labelled cells ([2]; D10): 99.97% | CD83, percentage of labelled cells ([2]; D10): 2.46% | CD86, percentage of labelled cells ([2]; D10): 9.23% | CD1a, percentage of labelled cells ([2]; D12): 27.9% | CD14, percentage of labelled cells ([2]; D12): 66.77% | CD34, percentage of labelled cells ([2]; D12): 0.69% | CD40, percentage of labelled cells ([2]; D12): 75.91% | CD45, percentage of labelled cells ([2]; D12): 99.85% | CD54, percentage of labelled cells ([2]; D12): 74.66% | CD83, percentage of labelled cells ([2]; D12): 0.71% | CD86, percentage of labelled cells ([2]; D12): 13.94% | HLA-DR, percentage of labelled cells ([2]; D12): 81.34% | CD1a, percentage of labelled cells ([2]; D13): 36.13% | CD14, percentage of labelled cells ([2]; D13): 57.73% | CD34, percentage of labelled cells ([2]; D13): 0.45% | CD40, percentage of labelled cells ([2]; D13): 63.35% | CD45, percentage of labelled cells ([2]; D13): 99.69% | CD54, percentage of labelled cells ([2]; D13): 61.7% | CD83, percentage of labelled cells ([2]; D13): 3.19% | CD86, percentage of labelled cells ([2]; D13): 12.78% | HLA-DR, percentage of labelled cells ([2]; D13): 73.04% | CD1a, percentage of labelled cells ([2]; D14): 34.2% | CD14, percentage of labelled cells ([2]; D14): 46.77% | CD34, percentage of labelled cells ([2]; D14): 0.38% | CD40, percentage of labelled cells ([2]; D14): 64.56% | CD45, percentage of labelled cells ([2]; D14): 99.93% | CD54, percentage of labelled cells ([2]; D14): 64.4% | CD83, percentage of labelled cells ([2]; D14): 1.22% | CD86, percentage of labelled cells ([2]; D14): 19.33% | HLA-DR, percentage of labelled cells ([2]; D14): 57.84% | CD1a+ DR+ cells [3]: 8% | Lag+ DR+ cells [3]: 5.2%
